Source: patent US20120220562A1, “Anti-Viral Compounds” (ABBOTT LABAORATORIES, priority 2011, published 2012)

Test system: HCV 1b-Con1 replicon
Assay: HCV 1b-Con1 replicon assay in the presence of 5% FBS
Assay type: cell-based
Conditions: Hepatitis C virus

Row | Compound | EC50
1 | COC(=O)N[C@H](C(=O)N1CCC[C@H]1c1nc2cc([C@H]3CC[C@@H](c4ccc5[nH]c([C@@H]6CCCN6C(=O)[C@@H](NC(=O)OC)C(C)C)nc5c4)N3c3cc(F)c(C(F)(F)F)cc3F)ccc2[nH]1)C(C)C [Example 1.3, methyl {(2S)-1-[(2S)-2-{5-[(2S,5R)-1-[2,5-difluoro-4-(trifluoromethyl)phenyl]-5-{2-[(2S)-1-{(2S)-2-[(methoxycarbonyl)amino]-3-methylbutanoyl}pyrrolidin-2-yl]-1H-benzimidazol-5-yl}pyrrolidin-2-yl]-1H-benzimidazol-2-yl}pyrrolidin-1-yl]-3-methyl-1-oxobutan-2-yl}carbamate] | < 100 pM
2 | C=C1C[C@@H](c2nc3cc([C@H]4CC[C@H](c5ccc6[nH]c([C@@H]7CC(=C)CN7C(=O)[C@@H](NC(=O)OC)C(C)C)nc6c5)N4c4ccc(C(C)(C)C)cc4)ccc3[nH]2)N(C(=O)[C@@H](NC(=O)OC)C(C)C)C1 [Example 3.26, methyl {(2S)-1-[(2S)-2-{5-[(2R,5R)-1-(4-tert-butylphenyl)-5-{2-[(2S)-1-{(2S)-2-[(methoxycarbonyl)amino]-3-methylbutanoyl}-4-methylidenepyrrolidin-2-yl]-1H-benzimidazol-5-yl}pyrrolidin-2-yl]-1H-benzimidazol-2-yl}-4-methylidenepyrrolidin-1-yl]-3-methyl-1-oxobutan-2-yl}carbamate] | < 100 pM
3 | COC(=O)N[C@H](C(=O)N1CCC[C@H]1c1nc2cc([C@H]3CC[C@H](c4ccc5[nH]c([C@@H]6CCCN6C(=O)[C@@H](NC(=O)OC)C(C)C)nc5c4)N3c3cc(F)c(N4CCC5(CCCCC5)CC4)c(F)c3)ccc2[nH]1)C(C)C [Example 5.12, methyl {(2S)-1-[(2S)-2-{5-[(2R,5R)-1-[4-(3-azaspiro[5.5]undec-3-yl)-3,5-difluorophenyl]-5-{2-[(2S)-1-{(2S)-2-[(methoxycarbonyl)amino]-3-methylbutanoyl}pyrrolidin-2-yl]-1H-benzimidazol-5-yl}pyrrolidin-2-yl]-1H-benzimidazol-2-yl}pyrrolidin-1-yl]-3-methyl-1-oxobutan-2-yl}carbamate] | < 100 pM
4 | COC(=O)N[C@H](C(=O)N1[C@H](c2nc3cc([C@H]4CC[C@H](c5cc6nc([C@@H]7C[C@@H]8CCC[C@@H]8N7C(=O)[C@@H](NC(=O)OC)[C@@H](C)OC)[nH]c6cc5F)N4c4cc(F)c(N5CCCCC5)c(F)c4)c(F)cc3[nH]2)C[C@@H]2CCC[C@@H]21)[C@@H](C)OC [Example 3.38, methyl {(2S,3R)-1-[(2S,3aS,6aS)-2-{5-[(2R,5R)-1-[3,5-difluoro-4-(piperidin-1-yl)phenyl]-5-(6-fluoro-2-{(2S,3aS,6aS)-1-[N-(methoxycarbonyl)-O-methyl-L-threonyl]octahydrocyclopenta[b]pyrrol-2-yl}-1H-benzimidazol-5-yl)pyrrolidin-2-yl]-6-fluoro-1H-benzimidazol-2-yl}hexahydrocyclopenta[b]pyrrol-1(2H)-yl]-3-methoxy-1-oxobutan-2-yl}carbamate] | < 100 pM
5 | COC(=O)N[C@H](C(=O)N1CCC[C@H]1c1nc2cc([C@H]3CC[C@H](c4ccc5[nH]c([C@@H]6CCCN6C(=O)[C@@H](NC(=O)OC)C(C)C)nc5c4)N3c3cc(Cl)c(N4CCCCC4)c(Cl)c3)ccc2[nH]1)C(C)C [Example 4.4, methyl {(2S)-1-[(2S)-2-{5-[(2R,5R)-1-[3,5-dichloro-4-(piperidin-1-yl)phenyl]-5-{2-[(2S)-1-{(2S)-2-[(methoxycarbonyl)amino]-3-methylbutanoyl}pyrrolidin-2-yl]-1H-benzimidazol-5-yl}pyrrolidin-2-yl]-1H-benzimidazol-2-yl}pyrrolidin-1-yl]-3-methyl-1-oxobutan-2-yl}carbamate] | < 100 pM
6 | COC(=O)N[C@H](C(=O)N1CCC[C@H]1c1nc2cc([C@H]3CC[C@H](c4ccc5[nH]c([C@@H]6CCCN6C(=O)[C@@H](NC(=O)OC)C(C)C)nc5c4)N3c3ccc(N4CCCCC4)c(C)c3)ccc2[nH]1)C(C)C [Example 4.2, methyl {(2S)-1-[(2S)-2-(5-{(2R,5R)-5-{2-[(2S)-1-{(2S)-2-[(methoxycarbonyl)amino]-3-methylbutanoyl}pyrrolidin-2-yl]-1H-benzimidazol-5-yl}-1-[3-methyl-4-(piperidin-1-yl)phenyl]pyrrolidin-2-yl}-1H-benzimidazol-2-yl)pyrrolidin-1-yl]-3-methyl-1-oxobutan-2-yl}carbamate] | < 100 pM
7 | COC(=O)N[C@H](C(=O)N1C[C@@H](OC)C[C@H]1c1nc2cc([C@H]3CC[C@H](c4ccc5[nH]c([C@@H]6C[C@H](OC)CN6C(=O)[C@@H](NC(=O)OC)C(C)C)nc5c4)N3c3cc(F)c(N4CCCCC4)c(F)c3)ccc2[nH]1)C(C)C [Example 3.7, methyl {(2S)-1-[(2S,4S)-2-{5-[(2R,5R)-1-[3,5-difluoro-4-(piperidin-1-yl)phenyl]-5-{2-[(2S,4S)-4-methoxy-1-{(2S)-2-[(methoxycarbonyl)amino]-3-methylbutanoyl}pyrrolidin-2-yl]-1H-benzimidazol-5-yl}pyrrolidin-2-yl]-1H-benzimidazol-2-yl}-4-methoxypyrrolidin-1-yl]-3-methyl-1-oxobutan-2-yl}carbamate] | < 100 pM
8 | COC(=O)N[C@H](C(=O)N1CCC[C@H]1c1nc2cc([C@H]3CC[C@H](c4ccc5[nH]c([C@@H]6CCCN6C(=O)[C@@H](NC(=O)OC)C(C)C)nc5c4)N3c3ccc(OCC4COCO4)cc3)ccc2[nH]1)C(C)C (stereo partly drawn) [Example 2.4, methyl {(2S)-1-[(2S)-2-{5-[(2R,5R)-1-[4-(1,3-dioxolan-4-ylmethoxy)phenyl]-5-{2-[(2S)-1-{(2S)-2-[(methoxycarbonyl)amino]-3-methylbutanoyl}pyrrolidin-2-yl]-1H-benzimidazol-5-yl}pyrrolidin-2-yl]-1H-benzimidazol-2-yl}pyrrolidin-1-yl]-3-methyl-1-oxobutan-2-yl}carbamate] | < 100 pM
9 | COC(=O)N[C@H](C(=O)N1C(c2nc3cc([C@H]4CC[C@H](c5ccc6[nH]c([C@@H]7C[C@@H]8CCC[C@@H]8N7C(=O)[C@@H](NC(=O)OC)C(C)C)nc6c5)N4c4cc(F)c(N5CCCCC5)c(F)c4)ccc3[nH]2)C[C@@H]2CCC[C@@H]21)C(C)C (stereo partly drawn) [Example 4.18, methyl {(2S)-1-[(2S,3aS,6aS)-2-{5-[(2R,5R)-1-[3,5-difluoro-4-(piperidin-1-yl)phenyl]-5-{2-[(3aS,6aS)-1-{(2S)-2-[(methoxycarbonyl)amino]-3-methylbutanoyl}octahydrocyclopenta[b]pyrrol-2-yl]-1H-benzimidazol-5-yl}pyrrolidin-2-yl]-1H-benzimidazol-2-yl}hexahydrocyclopenta[b]pyrrol-1(2H)-yl]-3-methyl-1-oxobutan-2-yl}carbamate] | < 100 pM
10 | COC(=O)N[C@H](C(=O)N1C[C@@H](F)C[C@H]1c1nc2cc([C@H]3CC[C@H](c4ccc5[nH]c([C@@H]6C[C@H](F)CN6C(=O)[C@@H](NC(=O)OC)C(C)C)nc5c4)N3c3ccc(C(C)(C)C)cc3)ccc2[nH]1)C(C)C [Example 3.12, methyl {(2S)-1-[(2S,4S)-2-{5-[(2R,5R)-1-(4-tert-butylphenyl)-5-{2-[(2S,45)-4-fluoro-1-{(2S)-2-[(methoxycarbonyl)amino]-3-methylbutanoyl}pyrrolidin-2-yl]-1H-benzimidazol-5-yl}pyrrolidin-2-yl]-1H-benzimidazol-2-yl}-4-fluoropyrrolidin-1-yl]-3-methyl-1-oxobutan-2-yl}carbamate] | < 100 pM
11 | COC(=O)N[C@H](C(=O)N1CCC[C@H]1c1nc2cc([C@H]3CC[C@H](c4ccc5[nH]c([C@@H]6CCCN6C(=O)[C@@H](NC(=O)OC)C(C)C)nc5c4)N3c3cc(F)c(N4CC5CCC4CC5)c(F)c3)ccc2[nH]1)C(C)C [Example 4.21, methyl {(2S)-1-[(2S)-2-{5-[(2R,5R)-1-[4-(2-azabicyclo[2.2.2]oct-2-yl)-3,5-difluorophenyl]-5-{2-[(2S)-1-{(2S)-2-[(methoxycarbonyl)amino]-3-methylbutanoyl}pyrrolidin-2-yl]-1H-benzimidazol-5-yl}pyrrolidin-2-yl]-1H-benzimidazol-2-yl}pyrrolidin-1-yl]-3-methyl-1-oxobutan-2-yl}carbamate] | < 100 pM
12 | COC(=O)N[C@H](C(=O)N1CCC[C@H]1c1nc2cc([C@H]3CC[C@@H](c4cc5nc([C@@H]6CCCN6C(=O)[C@@H](NC(=O)OC)C(C)C)[nH]c5cc4F)N3c3cnc(N4CCC(c5ccccc5)CC4)nc3)c(F)cc2[nH]1)C(C)C [Example 3.46, methyl {(2S)-1-[(2S)-2-(6-fluoro-5-{(2R,5S)-5-{6-fluoro-2-[(2S)-1-{(2S)-2-[(methoxycarbonyl)amino]-3-methylbutanoyl}pyrrolidin-2-yl]-1H-benzimidazol-5-yl}-1-[2-(4-phenylpiperidin-1-yl)pyrimidin-5-yl]pyrrolidin-2-yl}-1H-benzimidazol-2-yl)pyrrolidin-1-yl]-3-methyl-1-oxobutan-2-yl}carbamate] | < 100 pM
13 | COC(=O)N[C@H](C(=O)N1CCC[C@H]1c1nc2cc([C@H]3CC[C@H](c4cc5nc([C@@H]6CCCN6C(=O)[C@@H](NC(=O)OC)C(C)C)[nH]c5cc4F)N3c3cc(F)c(N4CCC5(CCc6ccccc65)CC4)c(F)c3)c(F)cc2[nH]1)C(C)C [Example 4.31, methyl {(2S)-1-[(2S)-2-{5-[(2R,5R)-1-[4-(2,3-dihydro-1′H-spiro[indene-1,4′-piperidin]-1′-yl)-3,5-difluorophenyl]-5-{6-fluoro-2-[(2S)-1-{(2S)-2-[(methoxycarbonyl)amino]-3-methylbutanoyl}pyrrolidin-2-yl]-1H-benzimidazol-5-yl}pyrrolidin-2-yl]-6-fluoro-1H-benzimidazol-2-yl}pyrrolidin-1-yl]-3-methyl-1-oxobutan-2-yl}carbamate] | < 100 pM
14 | COC(=O)N[C@H](C(=O)N1[C@H](c2nc3cc([C@H]4CC[C@H](c5ccc6[nH]c([C@@H]7C[C@@H]8CCC[C@@H]8N7C(=O)[C@@H](NC(=O)OC)C(C)C)nc6c5)N4c4cc(F)c(N5CCC(c6ccccc6)CC5)c(F)c4)ccc3[nH]2)C[C@@H]2CCC[C@@H]21)C(C)C [Example 3.28, methyl {(2S)-1-[(2S,3aS,6aS)-2-{5-[(2R,5R)-1-[3,5-difluoro-4-(4-phenylpiperidin-1-yl)phenyl]-5-{2-[(2S,3aS,6aS)-1-{(2S)-2-[(methoxycarbonyl)amino]-3-methylbutanoyl}octahydrocyclopenta[b]pyrrol-2-yl]-1H-benzimidazol-5-yl}pyrrolidin-2-yl]-1H-benzimidazol-2-yl}hexahydrocyclopenta[b]pyrrol-1(2H)-yl]-3-methyl-1-oxobutan-2-yl}carbamate] | < 100 pM
